Laboratory results published in article PMC7495385, “Role of Escape Mutant-Specific T Cells in Suppression of HIV-1 Replication and Coevolution with HIV-1” (Journal of Virology, 2020).

Legend:
Assay type in all cases: cell-based, human
[1] = tested on: RI8-6T-specific T cell lines (KI-906); experiment: ICS assay, 721.221-B*52:01 cells prepulsed with peptide, T cell lines from KI-906; settings: two RI8-6T-specific T cell lines from KI-906 (Nov 2010, Aug 2013); 2 h, then brefeldin A 4 h at 37°C; IFN-γ+ of CD8+ T cells; means with SD (n = 3)
Source text: (§1) PBMCs were stained with PE- or APC-conjugated tetramers, FITC-conjugated anti-CD3 (Dako, Glostrup, Denmark), Pacific blue-conjugated anti-CD8 MAb (BD Biosciences), and 7-AAD (BD Pharmingen), after which CD3^+ CD8^+ 7AAD^− tetramer^+ T cells were sorted in U-bottomed 96-well microtiter plates (1 cell/well for T cell clones and 100 to 500 cells/well for T cell lines) by using a FACSAria (BD Biosciences). The sorted cells were stimulated with the corresponding epitope peptide and cultured as previously described ([51]). After 2 to 3 weeks in culture, epitope-specific CD8^+ T cells were used in functional assays after their purity had been confirmed by flow cytometry analysis using tetramers.
(§2) 721.221 cells prepulsed with HIV-1 epitope peptide or 721.221 cells infected with HIV-1 were cocultured with T cell clones or lines in a 96-well plate for 2 h at 37°C. Brefeldin A (10 μg/ml) was then added, and the cells were incubated further for 4 h at 37°C. The cells were then fixed with 4% paraformaldehyde and incubated in permeabilization buffer (0.1% saponin–10% fetal bovine serum [FBS]–phosphate-buffered saline [PBS]), after which they were stained with APC-conjugated anti-CD8 MAb (Dako, Denmark) followed by FITC-conjugated anti-IFN-γ MAb (BD Biosciences). The percentage of IFN-γ-producing cells among the CD8^+ T cell population was determined by use of the FACSCanto II.

[2] = tested on: cross-reactive T cell clone 8F (KI-855); experiment: ICS assay, 721.221-B*52:01 cells prepulsed with peptide, clone 8F from KI-855; settings: cross-reactive clone 8F from KI-855; 2 h, then brefeldin A 4 h at 37°C; IFN-γ; means with SD (n = 3)
Source text: as §1, §2

[3] = tested on: RI8-6T-specific T cell clone 2F (KI-855); experiment: ICS assay, 721.221-B*52:01 cells prepulsed with peptide, clone 2F from KI-855; settings: RI8-6T-specific T cell clone 2F from KI-855; 2 h, then brefeldin A 4 h at 37°C; IFN-γ; means with SD (n = 3)
Source text: as §1, §2

[4] = tested on: HLA-B*52:01-restricted CD8+ T cells (PBMCs of HIV-1 subtype B-infected individuals); experiment: IFN-γ ELISPOT assay, T cell responses to peptides in HLA-B*52:01+ individuals; settings: positive >200 spots/10^6 CD8+ T cells
Procedure: Ex vivo gamma interferon (IFN-γ) ELISPOT assays were performed as previously described ([6], [49]). The number of spots for a T cell response to each peptide was finally calculated by subtracting the number of spots in wells without peptides. The mean + 3 standard deviations (SD) of the spot number of samples from 13 HIV-1 naive individuals for the peptides was 162 spots/10^6 CD8^+ T cells ([6], [49]). Therefore, we defined >200 spots/10^6 CD8^+ T cells as positive responses.

RMYSPTSI [RI8-6T]
recognition of 721.221-B*52:01 cells prepulsed with peptide [1]: recognized
recognition of 721.221-B*52:01 cells prepulsed with peptide [2]: effectively recognized
recognition of 721.221-B*52:01 cells prepulsed with peptide [3]: effectively recognized
number of individuals with epitope-specific T cells detected ([4]; 12 HLA-B*52:01+ individuals infected with Gag280V virus, IFN-γ ELISPOT): 4 individuals
T cell response to peptide in individual KI-809 ([4]; PBMCs from wild-type virus-infected KI-809, ELISPOT): strong T cell response
